The source of these data is patent publication US4889634A, “Dialysate solution containing hydroxypropyl-beta-cyclodextrin and method of using same” (priority 1988, dated 1989).

Structures are written as SMILES.

A short description of data set [1]: relative nephrotoxicity of HPBCD and BCD, intraperitoneal. It is filed as in vivo, rat. As to conditions: rat, in vivo, ip, BCD 0.75%. On the procedure:
(§1) A first study was conducted to determine the relative nephrotoxicity of HPBCD and BCD. A control group using phosphate buffer solution was also included in the study.
(§2) Three groups of normal rats were utilized in this study. […] Group I rats were given the vehicle solution of phosphate buffer saline (PBS). Group II rats were subdivided into three sub-groups. The first sub-group received a solution having a concentration of 1.5% HPBCD, the second sub-group received a solution having a concentration of 3% HPBCD while the third sub-group received a solution having a concentration of 6% HPBCD. Group III rats were given a solution having a concentration of 0.75% BCD.
(§3) Animals from each group were sacrificed at 24 and 72 hours after injection of the peritoneal solution. The animals were sacrificed under general anesthesia and exsanguinated from the abdominal aorta. Plasma was separated and blood urea nitrogen and creatinine was measured and used as an index of renal toxicity of the solutions.

The subject of the next data set is normal rats. The data set is described as above. The class given is in vivo, rat. As to conditions: for Mortality (died/total): BCD 0.75% w/v, HPBCD 1.5 and 3% w/v, 15 ml/100 g i.p.; for Rats died of kidney failure: in words. As for the experimental part: as §1, §2, §3
In the next data set the test system is laboratory animals. As to conditions: cited from earlier work.
Setting [2] is: 1 day, BCD 0.75%, HPBCD 1.5 and 3%.
[3] abbreviates: 3 day, BCD 0.75%, HPBCD 1.5 and 3%.

Usually mortality stands for the share of the test organisms that died. A higher mortality goes with a strong lethal effect.

Turning to `OC[C@H]1O[C@@H]2O[C@H]3[C@H](O)[C@@H](O)[C@@H](O[C@H]4[C@H](O)[C@@H](O)[C@@H](O[C@H]5[C@H](O)[C@@H](O)[C@@H](O[C@H]6[C@H](O)[C@@H](O)[C@@H](O[C@H]7[C@H](O)[C@@H](O)[C@@H](O[C@H]8[C@H](O)[C@@H](O)[C@@H](O[C@H]1[C@H](O)[C@H]2O)O[C@@H]8CO)O[C@@H]7CO)O[C@@H]6CO)O[C@@H]5CO)O[C@@H]4CO)O[C@@H]3CO` [BCD, beta-cyclodextrin], in data set [1] (1d, n = 6), the mortality at 24 h amounted to 16.7%. Also, in data set [1] (3d, n = 9), the mortality at 72 h was 77.8%. Moreover, in the data set with normal rats (1 day), the “Mortality (died/total)” value is on record as 1/6. Moreover, in the data set on normal rats (setting [2]), the Kidney size entry was “enlarged” and the Kidney weight entry was “increased”. This molecule also displayed a BUN in the data set with normal rats (1 day, BCD 0.75%, HPBCD 1.5 and 3%, Table III) of 79.4 mg/dL. Also, the “Mortality (died/total)” value with normal rats (3 day) was 8/9. In the data set on normal rats (setting [3]), the Kidney size entry is reported as “enlarged” and the Kidney weight entry is “increased”. In the data set with normal rats (BCD 0.75%, 1d, n = 6), the BUN was determined as 79.4 mg/dL, the “Final body weight Wt (f)” value is recorded as 218 g, the “Initial body weight Wt (i)” value stood at 223 g and the “Left kidney weight (Lt kd)” value worked out at 1272 mg. Further, in the data set on normal rats (BCD 0.75%, 1d, n = 6), the “Left kidney/body weight (Lt kd/wt)” value is listed as 5.83 mg/g, the “Right kidney weight (Rt kd)” value came to 1307 mg and the “Right kidney/body weight (Rt kd/wt)” value came to 5.98 mg/g. Moreover, the “Rats died of kidney failure” value in the data set on normal rats (BCD 1d Group) is “One rat”. In addition, in the data set on normal rats (BCD 3d Group (nine rats)), the “Rats died of kidney failure” value is recorded as “all but two of the nine rats”. Moreover, the “Renal toxicity (kidney enlargement, death)” value with laboratory animals (laboratory animals, reports in literature) is “enlargement of the kidneys and death due to kidney failure”. For the same molecule, the “Toxicity at high concentrations” value with laboratory animals (rat, in vivo) is recorded as “toxic”. In the data set on laboratory animals (rats, peritoneal dialysate, Perrin et al.), the “Removal of intravenously administered toxins” value is reported as “accelerate the removal of intravenously administered toxins in rats”.
